According to article PMC12148948, “Targeting enabled homolog with daunorubicin inhibits ERK1/2/c‐Fos pathway and suppresses hepatocellular carcinoma progression” (Clinical and Translational Medicine, 2025):

Molecular target: T1, enabled homolog (ENAH) (Homo sapiens, UniProt Q8N8S7)
T1 sequence (Q8N8S7 1-591): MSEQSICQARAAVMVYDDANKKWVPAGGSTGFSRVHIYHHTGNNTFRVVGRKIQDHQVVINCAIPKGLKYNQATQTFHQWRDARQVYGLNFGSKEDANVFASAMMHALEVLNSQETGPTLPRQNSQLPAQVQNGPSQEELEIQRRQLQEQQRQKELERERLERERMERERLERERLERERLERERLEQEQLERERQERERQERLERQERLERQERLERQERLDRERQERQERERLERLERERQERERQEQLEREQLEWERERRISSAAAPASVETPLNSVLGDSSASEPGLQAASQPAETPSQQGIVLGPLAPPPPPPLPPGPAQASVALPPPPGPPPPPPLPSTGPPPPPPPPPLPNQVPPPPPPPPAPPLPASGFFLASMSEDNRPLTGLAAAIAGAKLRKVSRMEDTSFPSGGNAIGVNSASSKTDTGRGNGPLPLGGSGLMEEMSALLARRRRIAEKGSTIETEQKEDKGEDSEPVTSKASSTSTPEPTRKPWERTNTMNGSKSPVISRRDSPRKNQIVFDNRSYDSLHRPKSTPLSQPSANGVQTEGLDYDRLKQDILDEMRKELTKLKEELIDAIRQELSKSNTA
Experiment: CETSA in HCCLM3 cells ([…] daunorubicin), western blot
Format: cell-based

COc1cccc2c1C(=O)c1c(O)c3c(c(O)c1C2=O)C[C@@](O)(C(C)=O)C[C@@H]3O[C@H]1C[C@H](N)[C@H](O)[C@H](C)O1 [compound 11, daunorubicin]
CETSA in HCCLM3 cells (1 μM daunorubicin), western blot: The interaction between ENAH and daunorubicin was confirmed by the cellular thermal shift assay (CETSA)
